SMILES strings stand for the structures.

Sequence of human TRPV3 receptors (Q8NET8 whole entry): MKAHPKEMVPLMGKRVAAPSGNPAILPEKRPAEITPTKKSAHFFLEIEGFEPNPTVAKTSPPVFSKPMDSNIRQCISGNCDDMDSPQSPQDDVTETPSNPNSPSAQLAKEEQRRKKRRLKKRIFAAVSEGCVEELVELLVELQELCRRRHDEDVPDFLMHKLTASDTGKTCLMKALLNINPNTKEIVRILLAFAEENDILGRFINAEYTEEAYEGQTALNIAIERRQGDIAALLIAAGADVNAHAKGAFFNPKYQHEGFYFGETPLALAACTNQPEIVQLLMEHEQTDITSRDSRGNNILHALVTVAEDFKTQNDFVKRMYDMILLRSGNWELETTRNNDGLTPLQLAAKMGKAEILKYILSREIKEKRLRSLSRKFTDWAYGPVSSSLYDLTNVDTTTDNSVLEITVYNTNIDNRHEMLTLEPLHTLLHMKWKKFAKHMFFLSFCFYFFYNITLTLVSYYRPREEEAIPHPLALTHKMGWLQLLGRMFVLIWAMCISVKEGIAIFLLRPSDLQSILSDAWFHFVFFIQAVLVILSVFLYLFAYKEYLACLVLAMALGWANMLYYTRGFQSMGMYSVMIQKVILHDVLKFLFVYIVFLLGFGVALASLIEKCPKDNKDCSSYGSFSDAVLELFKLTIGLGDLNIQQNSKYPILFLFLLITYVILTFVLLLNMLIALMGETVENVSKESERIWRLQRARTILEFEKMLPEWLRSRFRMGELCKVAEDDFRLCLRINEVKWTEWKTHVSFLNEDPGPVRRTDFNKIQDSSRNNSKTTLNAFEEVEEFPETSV

This test addresses human TRPV3 receptors (Homo sapiens (Human), UniProt Q8NET8). Briefly: Calcium flux assay (FLIPR TETRA), inhibition of the 2-APB response. In kind it is cell-based. The note with it: recombinant HEK293 cells stably expressing TRPV3, Calcium-4 dye, 2-APB at its EC80. Put shortly: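 HEK293 cells stably expressing human and mouse TRPV3, plated the day before and dye-loaded 90-120 min in the dark, read on FLIPR Tetra. Peak fluorescence increase over baseline was expressed as percent of the maximal 2-APB response without compound.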
With `CC(C)[C@H](CO)NCc1nc(C2CCc3ccccc3C2)ccc1F` (stereo partly drawn) [Example 217, (2R)-2-({[3-fluoro-6-(1,2,3,4-tetrahydronaphthalen-2-yl)pyridin-2-yl]methyl}amino)-3-methylbutan-1-ol], the 50% inhibitory concentration (IC50) was 0.35 µM.
For `CC(C)[C@H](CO)NCc1nc(C2CCCOC2)ccc1F` (stereo partly drawn) [Example 218, (2R)-2-({[3-fluoro-6-(tetrahydro-2H-pyran-3-yl)pyridin-2-yl]methyl}amino)-3-methylbutan-1-ol], the IC50 is more than 20 µM.
To `CC(C)[C@H](CO)NCc1nc(C2CCCN(C(=O)OC(C)(C)C)C2)ccc1F` (stereo partly drawn) [Example 219, tert-butyl 3-[5-fluoro-6-({[(2R)-1-hydroxy-3-methylbutan-2-yl]amino}methyl)pyridin-2-yl]piperidine-1-carboxylate] belongs 0.66 µM; to `CC(C)[C@H](CO)NCc1nc(C2CCCC2)ccc1F` [Example 220, (2R)-2-{[(6-cyclopentyl-3-fluoropyridin-2-yl)methyl]amino}-3-methylbutan-1-ol], 0.48 µM.
To `CC(C)[C@H](CO)NCc1nc(C2=CCC(C(F)(F)F)CC2)ccc1F` (stereo partly drawn) [Example 223, (2R)-2-[({3-fluoro-6-[4-(trifluoromethyl)cyclohex-1-en-1-yl]pyridin-2-yl}methyl)amino]-3-methylbutan-1-ol] belongs 0.08 µM; to `CC(C)[C@H](CO)NCc1nc(C2=CCC(F)(F)CC2)ccc1F` [Example 224, (2R)-2-({[6-(4,4-difluorocyclohex-1-en-1-yl)-3-fluoropyridin-2-yl]methyl}amino)-3-methylbutan-1-ol], 0.14 µM.
Take `CC(C)[C@H](CO)NCc1cccc(-c2ccccc2)n1` [Example 225, (2R)-3-methyl-2-{[(6-phenylpyridin-2-yl)methyl]amino}butan-1-ol]: the IC50 came out at 2.92 µM.
To `CC(C)[C@H](CO)NCc1cccc(-c2cccc([Si](C)(C)C)c2)n1` [Example 226, (2R)-3-methyl-2-[({6-[3-(trimethylsilyl)phenyl]pyridin-2-yl}methyl)amino]butan-1-ol] belongs 0.6 µM; to `CC(C)[C@H](CO)NCc1cccc(-c2ccc([Si](C)(C)C(C)(C)C)s2)n1` [Example 227, (2R)-2-{[(6-{5-[tert-butyl(dimethyl)silyl]thiophen-2-yl}pyridin-2-yl)methyl]amino}-3-methylbutan-1-ol], 1.8 µM.
To `CC(C)[C@H](CO)NCc1nc(-c2ccc(F)c(F)c2)ccc1F` [Example 228, (2R)-2-({[6-(3,4-difluorophenyl)-3-fluoropyridin-2-yl]methyl}amino)-3-methylbutan-1-ol] belongs 0.14 µM.
As for `CC(C)[C@H](CO)NCc1nc(N2CCC(F)(F)CC2)ncc1F` [Example 231, (2R)-2-({[2-(4,4-difluoropiperidin-1-yl)-5-fluoropyrimidin-4-yl]methyl}amino)-3-methylbutan-1-ol], the half-maximal inhibitory concentration (IC50) was 1.53 µM.
On to `CC(C)[C@H](CO)NCc1nc(/C=C/c2cccc(F)c2)ccc1F` [Example 233, (2R)-2-[({3-fluoro-6-[(E)-2-(3-fluorophenyl)ethenyl]pyridin-2-yl}methyl)amino]-3-methylbutan-1-ol], for which the IC50 is 0.38 µM.
Then `COc1ccc(C#Cc2ccc(F)c(CN[C@@H](CO)C(C)C)n2)cc1` [Example 235, (2R)-2-[({3-fluoro-6-[(4-methoxyphenyl)ethynyl]pyridin-2-yl}methyl)amino]-3-methylbutan-1-ol], with 1.11 µM; and `CC(C)[C@H](CO)NCc1nc(C#CCC2CCCCC2)ccc1F` [Example 236, (2R)-2-({[6-(3-cyclohexylprop-1-yn-1-yl)-3-fluoropyridin-2-yl]methyl}amino)-3-methylbutan-1-ol], with 0.98 µM.
To `CC(C)(CO)NCc1cccc(-c2cccc([Si](C)(C)C)c2)n1` [Example 237, 2-methyl-2-[({6-[3-(trimethylsilyl)phenyl]pyridin-2-yl}methyl)amino]propan-1-ol] belongs 5.75 µM; to `CC(C)[C@H](CO)NCc1nc(C#Cc2ccc(F)cc2)ccc1F` [Example 238, (2R)-2-[({3-fluoro-6-[(4-fluorophenyl)ethynyl]pyridin-2-yl}methyl)amino]-3-methylbutan-1-ol], 0.29 µM; to `CC(C)[C@H](CO)NCc1nc(C#Cc2ccc(F)c(F)c2)ccc1F` [Example 239, (2R)-2-[({6-[(3,4-difluorophenyl)ethynyl]-3-fluoropyridin-2-yl}methyl)amino]-3-methylbutan-1-ol], 0.37 µM.
To `CC(C)[C@H](CO)NCc1nc(C#CC2CCCCC2)ccc1F` [Example 240, (2R)-2-({[6-(cyclohexylethynyl)-3-fluoropyridin-2-yl]methyl}amino)-3-methylbutan-1-ol] belongs 0.51 µM; to `CC(C)[C@H](CO)NCc1nc(C#Cc2ccc(C(C)(C)C)cc2)ccc1F` [Example 241, (2R)-2-[({6-[(4-tert-butylphenyl)ethynyl]-3-fluoropyridin-2-yl}methyl)amino]-3-methylbutan-1-ol], 1.86 µM; to `Cc1ccc(-c2ccc(F)c(CN[C@@H](CO)C(C)C)n2)s1` [Example 243, (2R)-2-({[3-fluoro-6-(5-methylthiophen-2-yl)pyridin-2-yl]methyl}amino)-3-methylbutan-1-ol], 0.38 µM.
With `CC(C)[C@H](CO)NCc1nc(-c2cc(F)c(F)c(F)c2)ccc1F` [Example 244, (2R)-2-({[3-fluoro-6-(3,4,5-trifluorophenyl)pyridin-2-yl]methyl}amino)-3-methylbutan-1-ol], the 50% inhibitory concentration (IC50) is 0.16 µM.
Take `CC(C)[C@H](CO)NCc1nc(-c2ccc(F)c(F)c2F)ccc1F` [Example 245, (2R)-2-({[3-fluoro-6-(2,3,4-trifluorophenyl)pyridin-2-yl]methyl}amino)-3-methylbutan-1-ol]: the IC50 was 0.16 µM.
Then `CC(C)[C@H](CO)NCc1nc(-c2cc(F)c(F)cc2F)ccc1F` [Example 246, (2R)-2-({[3-fluoro-6-(2,4,5-trifluorophenyl)pyridin-2-yl]methyl}amino)-3-methylbutan-1-ol], with 0.16 µM.
Then `CC(C)[C@H](CO)NCc1nc(-c2cc(F)cc(F)c2)ccc1F` [Example 247, (2R)-2-({[6-(3,5-difluorophenyl)-3-fluoropyridin-2-yl]methyl}amino)-3-methylbutan-1-ol], with 0.08 µM; and `CC(C)[C@H](CO)NCc1nc(-c2ccc3c(ccn3C)c2)ccc1F` [Example 248, (2R)-2-({[3-fluoro-6-(1-methyl-1H-indol-5-yl)pyridin-2-yl]methyl}amino)-3-methylbutan-1-ol], with 1.44 µM; and `CC(C)[C@H](CO)NCc1nc(-c2cc3ccccc3n2C)ccc1F` [Example 249, (2R)-2-({[3-fluoro-6-(1-methyl-1H-indol-2-yl)pyridin-2-yl]methyl}amino)-3-methylbutan-1-ol], with 0.35 µM.
Then `CC(C)[C@H](CO)NCc1nc(-c2cnn(CC3OCCO3)c2)ccc1F` [Example 250, (2R)-2-[({6-[1-(1,3-dioxolan-2-ylmethyl)-1H-pyrazol-4-yl]-3-fluoropyridin-2-yl}methyl)amino]-3-methylbutan-1-ol], with more than 20 µM; and `CC(C)[C@H](CO)NCc1nc(-c2ccoc2)ccc1F` [Example 251, (2R)-2-({[3-fluoro-6-(furan-3-yl)pyridin-2-yl]methyl}amino)-3-methylbutan-1-ol], with 0.58 µM; and `CC(C)[C@H](CO)NCc1nc(-c2ccnn2C)ccc1F` [Example 252, (2R)-2-({[3-fluoro-6-(1-methyl-1H-pyrazol-5-yl)pyridin-2-yl]methyl}amino)-3-methylbutan-1-ol], with more than 20 µM.
`Cc1cc(-c2ccc(F)c(CN[C@@H](CO)C(C)C)n2)cnc1N1CCOCC1` [Example 253, (2R)-2-({[5-fluoro-5′-methyl-6′-(morpholin-4-yl)-2,3′-bipyridin-6-yl]methyl}amino)-3-methylbutan-1-ol]: the IC50 was 0.7 µM.
For `CC(C)[C@H](CO)NCc1nc(-c2ccc(N3CCN(C)CC3)nc2)ccc1F` [Example 254, (2R)-2-({[5-fluoro-6′-(4-methylpiperazin-1-yl)-2,3′-bipyridin-6-yl]methyl}amino)-3-methylbutan-1-ol], the half-inhibitory concentration (IC50) is more than 20 µM.
For the compound `CC(C)[C@H](CO)NCc1nc(-c2ccc3sccc3c2)ccc1F` [Example 255, (2R)-2-({[6-(1-benzothiophen-5-yl)-3-fluoropyridin-2-yl]methyl}amino)-3-methylbutan-1-ol], the IC50 came out at 0.23 µM.
Then `CC(C)[C@H](CO)NCc1nc(-c2ccc3occc3c2)ccc1F` [Example 256, (2R)-2-({[6-(1-benzofuran-5-yl)-3-fluoropyridin-2-yl]methyl}amino)-3-methylbutan-1-ol], with 0.42 µM.
To `CC(C)[C@H](CO)NCc1nc([C@H]2CC[C@@H](C(F)(F)F)CC2)ccc1F` [Example 257, (2R)-2-[({3-fluoro-6-[cis-4-(trifluoromethyl)cyclohexyl]pyridin-2-yl}methyl)amino]-3-methylbutan-1-ol] belongs 0.34 µM; to `CC(C)[C@H](CO)NCc1nc([C@H]2CC[C@H](C(F)(F)F)CC2)ccc1F` [Example 258, (2R)-2-[({3-fluoro-6-[trans-4-(trifluoromethyl)cyclohexyl]pyridin-2-yl}methyl)amino]-3-methylbutan-1-ol], 0.29 µM.
To `CC(C)[C@H](CO)NCc1nc(-c2cc3c(OCc4ccccc4)cccc3n2C(=O)OC(C)(C)C)ccc1F` [Example 259, tert-butyl 4-(benzyloxy)-2-[5-fluoro-6-({[(2R)-1-hydroxy-3-methylbutan-2-yl]amino}methyl)pyridin-2-yl]-1H-indole-1-carboxylate] belongs 0.52 µM.
Take `CC(C)[C@H](CO)NCc1nc(-c2cccc(-n3cccn3)c2)ccc1F` [Example 260, (2R)-2-[({3-fluoro-6-[3-(1H-pyrazol-1-yl)phenyl]pyridin-2-yl}methyl)amino]-3-methylbutan-1-ol]: the half-maximal inhibitory concentration (IC50) was 0.3 µM.
